Results taken from patent publication US20210395239A1 (Hoffmann-La Roche Inc., priority 2018, published 2021).
pIC50: −log10 of the molar value.

Biological target: T1, hTLR9 (Homo sapiens, UniProt Q9NR96)
T1 sequence (Q9NR96 26-1032): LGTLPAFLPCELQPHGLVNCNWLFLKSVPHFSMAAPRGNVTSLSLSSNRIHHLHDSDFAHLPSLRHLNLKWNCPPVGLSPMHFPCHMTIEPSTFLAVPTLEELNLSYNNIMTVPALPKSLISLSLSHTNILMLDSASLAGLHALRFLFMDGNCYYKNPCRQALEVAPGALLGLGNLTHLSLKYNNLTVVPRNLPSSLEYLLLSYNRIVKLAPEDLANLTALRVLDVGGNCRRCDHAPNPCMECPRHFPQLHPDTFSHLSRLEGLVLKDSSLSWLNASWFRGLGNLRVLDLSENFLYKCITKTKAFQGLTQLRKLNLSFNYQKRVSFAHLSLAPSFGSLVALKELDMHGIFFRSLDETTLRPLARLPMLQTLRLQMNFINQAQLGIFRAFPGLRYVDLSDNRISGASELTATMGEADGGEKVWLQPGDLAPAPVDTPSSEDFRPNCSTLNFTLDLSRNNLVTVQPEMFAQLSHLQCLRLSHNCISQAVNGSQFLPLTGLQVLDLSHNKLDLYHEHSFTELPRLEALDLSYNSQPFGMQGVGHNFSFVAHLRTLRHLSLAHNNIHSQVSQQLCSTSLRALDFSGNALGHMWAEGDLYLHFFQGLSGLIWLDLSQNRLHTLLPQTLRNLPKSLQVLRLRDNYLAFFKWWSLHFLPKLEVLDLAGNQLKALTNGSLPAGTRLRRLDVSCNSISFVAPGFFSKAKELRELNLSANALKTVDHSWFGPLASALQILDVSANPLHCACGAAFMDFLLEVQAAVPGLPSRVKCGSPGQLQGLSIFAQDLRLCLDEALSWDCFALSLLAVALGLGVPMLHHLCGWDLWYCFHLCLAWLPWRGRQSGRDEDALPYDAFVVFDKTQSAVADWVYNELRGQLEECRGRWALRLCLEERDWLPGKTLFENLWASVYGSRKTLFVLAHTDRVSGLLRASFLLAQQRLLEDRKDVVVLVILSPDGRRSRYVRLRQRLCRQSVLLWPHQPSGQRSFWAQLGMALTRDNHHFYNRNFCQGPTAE
Test: HEK293-Blue-hTLR-9 cells assay (SEAP reporter, ODN2006 stimulation)
Format: cell-based
Set-up: host or cells: HEK293 (HEK-Blue hTLR9)
Conditions: HEK293-Blue-hTLR9 cells, ODN2006, 20 hrs; read-out: HEK/hTLR9 IC50
Summary of the method: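 HEK293-Blue-hTLR9 cells with NF-κB/AP-1-driven SEAP reporter treated with serially diluted compound (1% DMSO final) plus ODN2006 for 20 h at 37 °C. Supernatant SEAP measured with QUANTI-Blue, 2 h at 37 °C, absorbance 620–655 nm; antagonism seen as reduced reporter signal.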

SMILES	pIC50
C[C@@H]1CN(c2ccc(C#N)c3ncccc23)C[C@H](CN2CCN(c3ccnc(N4CCN(C(=O)C5CCN5)CC4)n3)CC2)O1 (stereo partly drawn) [Example 34, 5-[(2S,6R)-2-[[4-[2-[4-(azetidine-2-carbonyl)piperazin-1-yl]pyrimidin-4-yl]piperazin-1-yl]methyl]-6-methyl-morpholin-4-yl]quinoline-8-carbonitrile]	7.15
C[C@@H]1CN(c2ccc(C#N)c3ncccc23)C[C@H](CN2CCN(c3cccc(N[C@H]4CNC[C@@H]4F)n3)CC2)O1 [Example 35, 5-[(2S,6R)-2-[[4-[6-[[(3S,4S)-4-fluoropyrrolidin-3-yl]amino]-2-pyridyl]piperazin-1-yl]methyl]-6-methyl-morpholin-4-yl]quinoline-8-carbonitrile]	6.83
C[C@@H]1CN(c2ccc(C#N)c3ncccc23)C[C@H](CN2CCN(c3cccc(N4CCC(N)CC4)n3)CC2)O1 [Example 36, 5-[(2S,6R)-2-[[4-[6-(4-amino-1-piperidyl)-2-pyridyl]piperazin-1-yl]methyl]-6-methyl-morpholin-4-yl]quinoline-8-carbonitrile]	6.93
C[C@@H]1CN(c2ccc(C#N)c3ncccc23)C[C@H](CN2CCN(c3cccc(N[C@H]4CNC[C@H]4F)n3)CC2)O1 [Example 37, 5-[(2S,6R)-2-[[4-[6-[[(3S,4R)-4-fluoropyrrolidin-3-yl]amino]-2-pyridyl]piperazin-1-yl]methyl]-6-methyl-morpholin-4-yl]quinoline-8-carbonitrile]	6.63
C[C@@H]1CN(c2ccc(C#N)c3ncccc23)C[C@H](CN2CCN(c3cccc(NC4CNC4)n3)CC2)O1 [Example 38]	7.01
C[C@@H]1CN(c2ccc(C#N)c3ncccc23)C[C@H](CN2CCN(c3cccc(N4CC(N)C(F)C4)n3)CC2)O1 (stereo partly drawn) [Example 40, 5-[(2S,6R)-2-[[4-[6-(3-amino-4-fluoro-pyrrolidin-1-yl)-2-pyridyl]piperazin-1-yl]methyl]-6-methyl-morpholin-4-yl]quinoline-8-carbonitrile]	6.87
C[C@@H]1CN(c2ccc(C#N)c3ncccc23)C[C@H](CN2CCN(c3cccc(N4CCNCC(O)C4)n3)CC2)O1 (stereo partly drawn) [Example 41, 5-[(2S,6R)-2-[[4-[6-(6-hydroxy-1,4-diazepan-1-yl)-2-pyridyl]piperazin-1-yl]methyl]-6-methyl-morpholin-4-yl]quinoline-8-carbonitrile]	6.82
CO[C@H]1CN(c2cccc(N3CCN(C[C@H]4CN(c5ccc(C#N)c6ncccc56)C[C@@H](C)O4)CC3)n2)C[C@H]1N [Example 42, 5-[(2S,6R)-2-[[4-[6-[(3R,4S)-3-amino-4-methoxy-pyrrolidin-1-yl]-2-pyridyl]piperazin-1-yl]methyl]-6-methyl-morpholin-4-yl]quinoline-8-carbonitrile]	6.83
COC1CN(c2ccc(N3CCN(C[C@H]4CN(c5ccc(C#N)c6ncccc56)C[C@@H](C)O4)CC3)cn2)CC1N (stereo partly drawn) [Example 43, 5-[(2S,6R)-2-[[4-[6-(3-amino-4-methoxy-pyrrolidin-1-yl)-3-pyridyl]piperazin-1-yl]methyl]-6-methyl-morpholin-4-yl]quinoline-8-carbonitrile]	6.92
C[C@@H]1CN(c2ccc(C#N)c3ncccc23)C[C@H](CN2CCN(c3ccc(N4CC(N)C(F)C4)nc3)CC2)O1 (stereo partly drawn) [Example 44, 5-[(2S,6R)-2-[[4-[6-(3-amino-4-fluoro-pyrrolidin-1-yl)-3-pyridyl]piperazin-1-yl]methyl]-6-methyl-morpholin-4-yl]quinoline-8-carbonitrile]	6.79
C[C@@H]1CN(c2ccc(C#N)c3ncccc23)C[C@H](CN2CCN(c3nc(N4CCNCC4)nc4ccccc34)CC2)O1 [Example 49, 5-[(2R,6S)-2-methyl-6-[[4-(2-piperazin-1-ylquinazolin-4-yl)piperazin-1-yl]methyl]morpholin-4-yl]quinoline-8-carbonitrile]	6.84
Cc1cc(N2CCN(C[C@H]3CN(c4ccc(C#N)c5ncccc45)C[C@@H](C)O3)CC2)nc(N2C[C@@H](N)[C@@H](F)C2)n1 [Example 55, 5-[(2S,6R)-2-[[4-[2-[(3R,4S)-3-amino-4-fluoro-pyrrolidin-1-yl]-6-methyl-pyrimidin-4-yl]piperazin-1-yl]methyl]-6-methyl-morpholin-4-yl]quinoline-8-carbonitrile]	7.49
Cc1cc(N2CCN(C[C@H]3CN(c4ccc(C#N)c5ncccc45)C[C@@H](C)O3)CC2)nc(N2CCOCC(N)C2)n1 (stereo partly drawn) [Example 56, 5-[(2S,6R)-2-[[4-[2-(6-amino-1,4-oxazepan-4-yl)-6-methyl-pyrimidin-4-yl]piperazin-1-yl]methyl]-6-methyl-morpholin-4-yl]quinoline-8-carbonitrile]	7.47
Cc1cc(N2CCN(C[C@H]3CN(c4ccc(C#N)c5ncccc45)C[C@@H](C)O3)CC2)nc(NC2CNCC2C#N)n1 (stereo partly drawn) [Example 57, 5-[(2S,6R)-2-[[4-[2-[(4-cyanopyrrolidin-3-yl)amino]-6-methyl-pyrimidin-4-yl]piperazin-1-yl]methyl]-6-methyl-morpholin-4-yl]quinoline-8-carbonitrile]	7.42

Second part, the molecule after the results:

pIC50	SMILES
6.73	C[C@@H]1CN(c2ccc(C#N)c3ncccc23)C[C@H](CN2CCN(c3nc(N4CCNCC4)ncc3F)CC2)O1 [Example 45, 5-[(2S,6R)-2-[[4-(5-fluoro-2-piperazin-1-yl-pyrimidin-4-yl)piperazin-1-yl]methyl]-6-methyl-morpholin-4-yl]quinoline-8-carbonitrile]
6.80	Cc1nc(N2CCNCC2)nc(N2CCN(C[C@H]3CN(c4ccc(C#N)c5ncccc45)C[C@@H](C)O3)CC2)c1C [Example 46, 5-[(2S,6R)-2-[[4-(5,6-dimethyl-2-piperazin-1-yl-pyrimidin-4-yl)piperazin-1-yl]methyl]-6-methyl-morpholin-4-yl]quinoline-8-carbonitrile]
7.17	Cc1cc(N2CCN(C[C@H]3CN(c4ccc(C#N)c5ncccc45)C[C@@H](C)O3)CC2)nc(N2CCNCC2)n1 [Example 47, 5-[(2R,6S)-2-methyl-6-[[4-(6-methyl-2-piperazin-1-yl-pyrimidin-4-yl)piperazin-1-yl]methyl]morpholin-4-yl]quinoline-8-carbonitrile]
6.92	COc1cnc(N2CCNCC2)nc1N1CCN(C[C@H]2CN(c3ccc(C#N)c4ncccc34)C[C@@H](C)O2)CC1 [Example 48, 5-[(2S,6R)-2-[[4-(5-methoxy-2-piperazin-1-yl-pyrimidin-4-yl)piperazin-1-yl]methyl]-6-methyl-morpholin-4-yl]quinoline-8-carbonitrile]
6.90	C[C@@H]1CN(c2ccc(C#N)c3ncccc23)C[C@H](CN2CCN(c3nc(N4CCNCC4)ncc3C#N)CC2)O1 [Example 50, 5-[(2S,6R)-2-[[4-(5-cyano-2-piperazin-1-yl-pyrimidin-4-yl)piperazin-1-yl]methyl]-6-methyl-morpholin-4-yl]quinoline-8-carbonitrile]
6.92	C[C@@H]1CN(c2ccc(C#N)c3ncccc23)C[C@H](CN2CCN(c3ncc(C#N)c(N4CCNCC4)n3)CC2)O1 [Example 51, 5-[(2S,6R)-2-[[4-(5-cyano-4-piperazin-1-yl-pyrimidin-2-yl)piperazin-1-yl]methyl]-6-methyl-morpholin-4-yl]quinoline-8-carbonitrile]
